According to patent US8791100B2 (Novartis AG, priority 2010, dated 2014):

Columns and labels:
human S1P1 receptors = human S1P1 receptors (Homo sapiens (Human), UniProt P21453); experiment: Human S1P1 Receptor Calcium FLIPR Antagonist Assay (HeLa Gα16 S1P1); format: cell-based; conditions: relative antagonism vs probing agonist GNF-AC-1 at EC80, HeLa-S1P1/Gα16 cells
How it was run: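 HeLa cells stably expressing myc-tagged human S1P1 with Gα16, loaded with Fluo-4-AM, preincubated 20-30 min with compound (≦100 μM, 0.1% BSA). Agonist GNF-AC-1 then added at EC80 and calcium fluorescence recorded on FLIPR. IC50 from (Fmax−Fmin)/Fmin versus log concentration.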

[1] = test system: peripheral lymphocyte counts; experiment: Measurement of circulating lymphocytes after oral administration (rats); format: in vivo; conditions: Lewis rats, 30 mg/kg p.o., vs mean counts of untreated animals, mean ± STDEV
Procedure: (§1) The compounds of the invention, e.g. compounds of formula (I) typically induce the depletion of blood lymphocyte as may be determined in the assay described below. Moreover, compounds of the invention, e.g. compounds of formula (I) are typically efficacious in the said assay also when administered via the per oral route of administration.
(§2) Measurement of Circulating Lymphocytes:
(§3) The test compounds (or salts thereof) are dissolved in a vehicle such as water, saline, PEG (polyethylene glycol) 200, or PBS (phosphate buffered saline). Adult mice (C57BU6NCrl strain, female, 18-20 g) or rats (Lewis strain, male, 6-12 weeks old) are administered up to 60 mg/kg of the test compounds in 10 ml/kg (C57BU6NCrl mice) or 2 ml/kg (Lewis rats) vehicle via per oral application. The vehicle or a reference salt and FTY720 (0.3 mg/kg) are used as negative and positive controls, respectively. Blood is collected from the sublingual vein at single time points, e.g. 14 or 24 hours after the test compound administration, under short isoflurane anesthesia. Two to three animals are used in each group. Whole blood samples are subjected to hematology analysis. Peripheral lymphocyte counts are determined using an automated analyzer. The Haemathology System uses a combination of light scatter, cytochemical staining and nuclear density on two independent channels to measure the total and differential white cell counts. The reduction of lymphocytes provoked by each test compound is calculated by comparing the lymphocyte counts measured after each treatment to the mean lymphocyte counts measured in five to eight untreated mice or rats, respectively. The data are presented as mean±STDEV.

[2] = test system: peripheral lymphocyte counts; experiment: Measurement of circulating lymphocytes after oral administration (mice); format: in vivo; conditions: Mus musculus, C57BL/6NCrl mice, 30 mg/kg p.o., 24 hours, vs mean counts of untreated animals, mean ± STDEV, read-out: Residual Lymphocyte Counts 24 hours after p.o. dosing
Procedure: as §1, §2, §3

human S1P1 receptors, sequence (P21453 whole entry): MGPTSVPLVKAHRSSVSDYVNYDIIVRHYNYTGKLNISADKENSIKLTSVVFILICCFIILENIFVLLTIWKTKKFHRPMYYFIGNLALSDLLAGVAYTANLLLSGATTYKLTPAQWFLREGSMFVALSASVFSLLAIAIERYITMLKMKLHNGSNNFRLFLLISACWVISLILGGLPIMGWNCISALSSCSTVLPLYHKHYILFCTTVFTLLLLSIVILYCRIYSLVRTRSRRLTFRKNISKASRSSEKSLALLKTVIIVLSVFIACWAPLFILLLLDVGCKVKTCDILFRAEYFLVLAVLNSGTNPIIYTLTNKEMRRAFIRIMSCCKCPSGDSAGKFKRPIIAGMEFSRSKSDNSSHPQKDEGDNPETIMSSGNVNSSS

IC50 (human S1P1 receptors): 1 nM
Structure (SMILES): CC[C@@H](Nc1ccc(C)c(CN2CC[C@@H](C(=O)O)C2)c1)c1cc(C)c(Cl)c(C)c1 [Example 42, (R)-1-{5-[(R)-1-(4-Chloro-3,5-dimethyl-phenyl)-propylamino]-2-methyl-benzyl}-pyrrolidine-3-carboxylic acid]
Residual Lymphocyte Counts 24 hours after p.o. dosing [1]: 22.2% ± 6.7
response vs control in vivo at 30 mg/kg [2]: 19.4%
